Residues, ends and D or L forms follow the SMILES beside them.
Assays:
E. coli = settings: IM or OM of E. coli; cited from earlier work
[1] = target: LptA labeled with DyLight650 (E. coli) (UniProt P0ADV1); experiment: MST
Gram-negative strains = settings: all the Gram-negative strains tested; cited from earlier work
LptA-His6 (E. coli) = LptA-His6 (E. coli) (UniProt P0ADV1); experiment: fluorescence polarisation

CC[C@H](C)CCCCC(=O)N[C@@H](CCN)C(=O)N[C@H](C(=O)N[C@@H](CCN)C(=O)N[C@H]1CCNC(=O)[C@H]([C@@H](C)O)NC(=O)[C@H](CCN)NC(=O)[C@H](CCN)NC(=O)[C@H](CC(C)C)NC(=O)[C@@H](CC(C)C)NC(=O)[C@H](CCN)NC1=O)[C@@H](C)O [Colistin] (HELM PEPTIDE1{[CC[C@H](C)CCCCC(=O)[*:2]].[Dab].T.[Dab].[Dab].[Dab].[dL].L.[Dab].[Dab].T}$PEPTIDE1,PEPTIDE1,5:R3-11:R2$$$V2.0; N-terminus assumed; bridges inferred)
membrane permeabilization by other cationic antimicrobial peptides (E. coli): unlike what is seen with some other cationic antimicrobial peptides

thanatin (peptide)
Kd [1]: 20 nM

D-thanatin: enantiomeric form of thanatin (comprising all D-amino acids)
activity of enantiomeric form (Gram-negative strains): loses much of its activity

thanatin-BDP-FL (peptide)
Kd (LptA-His6 (E. coli)): 12 nM

polymyxin B
membrane permeabilization by other cationic antimicrobial peptides (E. coli): unlike what is seen with some other cationic antimicrobial peptides
